Experiment [1] deals with histamine-induced vascular hyperpermeability reaction. Description: Rat histamine-induced vascular hyperpermeability reaction (in vivo antihistamine action). The settings on record: SD male rat, oral administration 1 hour before intracutaneous histamine, leaked Evans Blue pigment. As for the experimental part:
An SD male rat (SPF) of 180 g in weight was previously fed for one week or more by allowing the rat to take a solid feed and tap water ad libitum, under the environment setting of a temperature of 22° C., humidity of 55% and an artificial illumination of 12 hours a day (light phase 8 am to 8 pm), and the rat was fasted overnight to be used for the experiment. Histamine•dihydrochloride (hereinafter referred to as histamine) and Evans Blue were used by dissolving each in physiological saline upon use. A substance to be tested was dissolved in water for injection or suspended in 0.5% carboxymethyl cellulose sodium, and the rat was orally administered with the solution or suspension (dose volume: 5 mL/kg body weight). After 1 hour from the administration, the physiological saline and the histamine solution were each intracutaneously injected to two locations (20 μg/0.05 ml/location) each on a back part of the rat of which hair was sheared with an electric clipper while anesthetizing with an ether. A 0.5% Evans Blue-containing physiological saline was injected intravenously to the tail of the rat (1 mL/200 g body weight) immediately before the intracutaneous injection of the histamine.
After 30 minutes, the animal was decapitated, and allowed to bleed lethally, and the skin was removed to measure an amount of leaked pigment in the blue-stained portion. The measurement of the amount of leaked pigment was carried out as follows. Skins of the pigment leaking site were cut out at two locations, 1 mL of a 2 mol/L aqueous potassium hydroxide solution was added thereto in a test tube, and the test tube was allowed to stand overnight at 37° C. to dissolve. Thereafter, 6 mL of a 1:3 mixed solution of 0.67 mol/L phosphoric acid and acetone was added to the solution, and the mixture was vigorously shaken for 10 minutes. Thereafter, the mixture was filtered, and the absorbance of the filtrate at 620 nm was measured. The absorbance obtained from the two locations of the sites injected with physiological saline, as blank value, was used for a compensation. The amount of leaked pigment was calculated from the calibration curve of Evans Blue at 620 nm.

Experiment [2] concerns the target T1, cerebral H1 receptor (Mus musculus, UniProt P70174).
T1 construct: the entire brain, except for cerebellum and medulla oblongatae, was rapidly excised; from tissue; host or cells: brain homogenate (without cerebellum and medulla oblongata) of orally dosed ICR male mice
Description: Murine cerebral H1 receptor occupying content (ex vivo). Format: in vivo. The note with it: for ED50: ICR male mouse, oral administration, brain excised after 1 hour, 3H-pyrilamine binding in brain homogenate, larger = lower brain transfer, read-out: ID50 (the source's name); for ID50 (mg/kg)/ ED50 (mg/kg): ID50 of cerebral receptor binding test (Table 20) divided by ED50 of vascular hyperpermeability test (Table 19). On the procedure:
A 6-week-old ICR male mouse was previously fed for one week or more by allowing the mouse to take a solid feed and tap water ad libitum, under the environment setting of a temperature of 22° C., humidity of 55% and an artificial illumination of 12 hours a day, and the mouse was fasted overnight to be used for the experiment. A substance to be tested was dissolved with water for injection or suspended in 0.5% carboxymethyl cellulose solution, and the solution or suspension was orally administered to the mouse (dose volume: 0.1 mL/10 g body weight). After 1 hour from the oral administration, the mouse was decapitated, and the entire brain, except for cerebellum and medulla oblongatae, was rapidly excised. The excised brain tissue was homogenized with Polytron (manufactured by Kinematica) in an ice-cooled 50 mmol/L phosphate buffered saline (pH 7.4, 100 mg/1.9 mL).
To a test tube for reaction (TPX-Tube) were added 180 μL of the brain homogenate, and 10 μL of ^3H-pyrilamine solution (final concentration: 2 nmol/L) and 10 μL of a non-labeled pyrilamine solution (final concentration: 200 μmol/L) or a 50 mmol/L phosphate buffered saline, and the mixture was incubated at room temperature for 45 minutes, and 2.0 mL of an ice-cooled, 50 mmol/L phosphate buffered saline was then added thereto to stop the reaction. The reaction mixture was filtered with a GF/B filter (manufactured by […]), and the […] was placed in a vial and dried overnight at 60 degrees. After drying, 10 mL of a scintillator (AL-1, toluene-based, manufactured by DOJINDO LABORATORIES) was added to the product, and the disintegration per minute (dpm) was measured with a liquid scintillation counter (manufactured by Packard, U.S.A., TRI-CARB 2700TR) (5 minutes/vial).

In experiment [3] the target is human histamine H1 receptor (Homo sapiens, UniProt P35367). Description: In vitro human histamine H1 receptor binding experiment ([3H]pyrilamine). The note with it: HEK293A cells stably expressing human histamine H1 receptor, [3H]pyrilamine 3 nmol/L, room temperature 60 minutes. Summed up: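 HEK293A cells stably expressing human H1 receptor (3×10^5 cells/well) incubated 60 min at room temperature with test substance and 3 nmol/L [3H]pyrilamine in 50 mmol/L Tris-HCl pH 7.5, 0.1% BSA. Filtration and scintillation counting; nonspecific binding with 30 μmol/L pyrilamine.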
human histamine H1 receptor, sequence (P35367 whole entry): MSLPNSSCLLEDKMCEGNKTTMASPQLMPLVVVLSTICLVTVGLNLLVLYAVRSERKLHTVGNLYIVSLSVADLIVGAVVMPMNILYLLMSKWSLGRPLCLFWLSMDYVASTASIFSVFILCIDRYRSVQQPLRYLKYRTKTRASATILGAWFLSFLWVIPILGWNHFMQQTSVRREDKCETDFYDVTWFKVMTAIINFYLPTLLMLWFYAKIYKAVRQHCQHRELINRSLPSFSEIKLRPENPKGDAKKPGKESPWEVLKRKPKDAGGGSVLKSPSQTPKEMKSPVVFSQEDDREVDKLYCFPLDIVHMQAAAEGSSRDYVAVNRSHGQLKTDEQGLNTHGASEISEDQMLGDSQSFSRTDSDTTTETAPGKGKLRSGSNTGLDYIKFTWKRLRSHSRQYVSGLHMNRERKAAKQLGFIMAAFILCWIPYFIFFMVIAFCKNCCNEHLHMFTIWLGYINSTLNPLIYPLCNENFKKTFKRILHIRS

T1 sequence (P70174 whole entry): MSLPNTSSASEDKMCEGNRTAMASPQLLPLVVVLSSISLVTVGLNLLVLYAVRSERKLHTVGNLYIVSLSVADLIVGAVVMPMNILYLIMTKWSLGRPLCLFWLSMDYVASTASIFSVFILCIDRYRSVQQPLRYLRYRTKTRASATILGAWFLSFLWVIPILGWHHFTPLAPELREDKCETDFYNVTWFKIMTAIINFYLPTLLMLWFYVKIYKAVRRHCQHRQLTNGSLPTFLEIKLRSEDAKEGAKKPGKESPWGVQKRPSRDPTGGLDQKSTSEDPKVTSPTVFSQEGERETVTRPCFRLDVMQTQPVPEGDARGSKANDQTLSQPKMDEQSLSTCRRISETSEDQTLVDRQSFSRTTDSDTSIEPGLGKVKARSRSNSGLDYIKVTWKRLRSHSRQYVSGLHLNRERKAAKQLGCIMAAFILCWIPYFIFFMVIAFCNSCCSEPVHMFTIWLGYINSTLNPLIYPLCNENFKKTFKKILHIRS

In turn, `COC(=O)Cc1ccc2c(c1)C(=C1CCN(CCNS(C)(=O)=O)CC1)c1sccc1CO2.Cl` [Compound 177, Methyl {4-[1-(2-methanesulfonylaminoethyl)piperidin-4-ylidene]-4,10-dihydro-9-oxa-3-thiabenzo[f]azulen-6-yl}acetate hydrochloride] displayed an ED50 in experiment [1] of 0.302 mg/kg. Further, in experiment [2], the ED50 worked out at 125 mg/kg and the “ID50 (mg/kg)/ ED50 (mg/kg)” value came to 412.6. Further, the IC50 in experiment [3] turned out to be 7.12 nM.
Consider `CN1CCC(=C2c3ccccc3CCc3sc(C(=O)NCCO)cc32)CC1` [Compound 27, N-(2-Hydroxyethyl) [4-(1-methylpiperidin-4-ylidene)-9,10-dihydro-4H-1-thiabenzo[f]azulen-2-yl]carboxamide], for which the ED50 in experiment [1] came to 1.63 mg/kg. In addition, in experiment [2], the ED50 was found to be 55.1 mg/kg and the “ID50 (mg/kg)/ ED50 (mg/kg)” value stood at 33.8. This molecule displayed an IC50 in experiment [3] of 52.8 nM.
Take `CN1CCC(=C2c3cc(CC(=O)O)ccc3CCc3sccc32)CC1` [Compound 151, [4-(1-Methylpiperidin-4-ylidene)-9,10-dihydro-4H-1-thiabenzo[f]azulen-6-yl]acetic acid]: the ED50 in experiment [1] was < 0.1 mg/kg. Moreover, in experiment [2], the ED50 was 6.36 mg/kg and the “ID50 (mg/kg)/ ED50 (mg/kg)” value is listed as >63.6. Also, in experiment [3], the IC50 amounted to 93.6 nM.
Taken in the same sequence, the figures for `COC(=O)Cc1ccc2c(c1)C(=C1CCN(CCCSC)CC1)c1sccc1CO2.Cl` [Compound 198, Methyl {4-[1-(3-methylsulfanylpropyl)piperidin-4-ylidene]-4,10-dihydro-9-oxa-3-thiabenzo[f]azulen-6-yl}acetate hydrochloride] were ~0.3 mg/kg, 22.1 mg/kg, 73.7 and 0.59 nM.
For `CN1CCC(=C2c3ccccc3CCc3sc(CNC(N)=O)cc32)CC1` [Compound 49, 2-Ureidomethyl-4-(1-methylpiperidin-4-ylidene)-9,10-dihydro-4H-1-thiabenzo[f]azulene], the ED50 in experiment [1] was ~1 mg/kg; in experiment [2], 33.9 mg/kg. In addition, in experiment [2], the “ID50 (mg/kg)/ ED50 (mg/kg)” value is given as 33.9. The molecule further had an IC50 in experiment [3] of 32.5 nM.
For `COC(=O)Cc1ccc2c(c1)C(=C1CCN(C(C)C)CC1)c1sccc1CO2.Cl` [Compound 131, Methyl[4-(1-isopropylpiperidin-4-ylidene)-4,10-dihydro-9-oxa-3-thiabenzo[f]azulen-6-yl]acetate hydrochloride], the ED50 in experiment [1] was ~0.1 mg/kg. In experiment [2], the ED50 came to 9.2 mg/kg and the “ID50 (mg/kg)/ ED50 (mg/kg)” value is 92.0. In experiment [3], this molecule yielded an IC50 of 32.3 nM.
The molecule `COC(=O)Cc1ccc2c(c1)C(=C1CCN(CCC(C)=O)CC1)c1sccc1CO2.Cl` [Compound 191, Methyl {4-[1-(3-oxobutyl)piperidin-4-ylidene]-4,10-dihydro-9-oxa-3-thiabenzo[f]azulen-6-yl}acetate hydrochloride] came in with an ED50 in experiment [1] of 0.597 mg/kg. Moreover, in experiment [2], the ED50 came to 79.2 mg/kg and the “ID50 (mg/kg)/ ED50 (mg/kg)” value worked out at 132.7. In experiment [3], this molecule registered an IC50 of 4.72 nM.
Take `COC(=O)COc1ccc2c(c1)C(=C1CCN(C)CC1)c1sccc1CO2.Cl` [Compound 165, Methyl[4-(1-methylpiperidin-4-ylidene)-4,10-dihydro-9-oxa-3-thiabenzo[f]azulen-6-yloxy]acetate hydrochloride]: the ED50 in experiment [1] was 0.107 mg/kg; in experiment [2], 23 mg/kg. In addition, the “ID50 (mg/kg)/ ED50 (mg/kg)” value in experiment [2] is 215.0. This molecule also returned an IC50 in experiment [3] of 11.8 nM.
In experiment [1], `CN1CCC(=C2c3cc(CCCC(=O)O)ccc3OCc3ccsc32)CC1` [Compound 124, 4-[4-(1-Methylpiperidin-4-ylidene)-4,10-dihydro-9-oxa-3-thiabenzo[f]azulen-6-yl]butyric acid] yielded an ED50 of 0.009 mg/kg. In experiment [2], the ED50 was 3.2 mg/kg and the “ID50 (mg/kg)/ ED50 (mg/kg)” value was 355.6. The molecule further displayed an IC50 in experiment [3] of 46.7 nM.
The like results for `CCN1CCC(=C2c3cc(CCCC(=O)O)ccc3OCc3ccsc32)CC1` [Compound 142, 4-[4-(1-Ethylpiperidin-4-ylidene)-4,10-dihydro-9-oxa-3-thiabenzo[f]azulen-6-yl]butyric acid] were, in that order, ~0.3 mg/kg, 11.9 mg/kg, 39.7 and 90.9 nM.
Turning to `CN1CCC(=C2c3ccccc3OCc3cc(CC(=O)O)sc32)CC1.Cl` [Compound 58, [4-(1-Methylpiperidin-4-ylidene)-4,10-dihydro-9-oxa-3-thiabenzo[f]azulen-2-yl]acetic acid hydrochloride], the ED50 in experiment [1] is 0.78 mg/kg. Further, in experiment [2], the ED50 amounted to 205 mg/kg and the “ID50 (mg/kg)/ ED50 (mg/kg)” value was determined as 263.1. The same molecule gave an IC50 in experiment [3] of 69.3 nM.
In the case of `CCN1CCC(=C2c3cc(CC(=O)OC)ccc3OCc3ccsc32)CC1.Cl` [Compound 127, Methyl[4-(1-ethylpiperidin-4-ylidene)-4,10-dihydro-9-oxa-3-thiabenzo[f]azulen-6-yl]acetate hydrochloride], the values for the ED50 in experiment [1] and in experiment [2] were ~0.1 mg/kg and 9.84 mg/kg, respectively. For the same molecule, the “ID50 (mg/kg)/ ED50 (mg/kg)” value in experiment [2] is reported as 98.4. Besides, the IC50 in experiment [3] was found to be 8.2 nM.
The molecule `COC(=O)CSc1ccc2c(c1)C(=C1CCNCC1)c1sccc1CO2.Cl` [Compound 197, Methyl (4-piperidin-4-ylidene-4,10-dihydro-9-oxa-3-thiabenzo[f]azulen-6-ylsulfanyl)acetate hydrochloride] showed an ED50 in experiment [1] of 0.19 mg/kg. Besides, in experiment [2], the ED50 is > 200 mg/kg and the “ID50 (mg/kg)/ ED50 (mg/kg)” value is >1052.6. This molecule also returned a 50% inhibitory concentration (IC50) in experiment [3] of 80.9 nM.
The molecule `COC(=O)CSc1ccc2c(c1)C(=C1CCN(C)CC1)c1sccc1CO2.Cl` [Compound 171, Methyl[4-(1-methylpiperidin-4-ylidene)-4,10-dihydro-9-oxa-3-thiabenzo[f]azulen-6-ylsulfanyl]acetate hydrochloride] had an ED50 in experiment [1] of 0.073 mg/kg. In experiment [2], the ED50 was 29.6 mg/kg and the “ID50 (mg/kg)/ ED50 (mg/kg)” value is recorded as 405.5. In experiment [3], this molecule gave an IC50 of 4.16 nM.
Turning to `CN1CCC(=C2c3cc(SCC(=O)O)ccc3OCc3ccsc32)CC1` [Compound 172, [4-(1-Methylpiperidin-4-ylidene)-4,10-dihydro-9-oxa-3-thiabenzo[f]azulen-6-ylsulfanyl]acetic acid], the ED50 in experiment [1] was found to be 0.117 mg/kg. Further, in experiment [2], the ED50 was determined as 28 mg/kg and the “ID50 (mg/kg)/ ED50 (mg/kg)” value was 239.3. Besides, the IC50 in experiment [3] was 22.2 nM.
The molecule `CCCN1CCC(=C2c3cc(CC(=O)OC)ccc3OCc3ccsc32)CC1.Cl` [Compound 129, Methyl[4-(1-propylpiperidin-4-ylidene)-4,10-dihydro-9-oxa-3-thiabenzo[f]azulen-6-yl]acetate hydrochloride] returned an ED50 in experiment [1] of 0.088 mg/kg. Moreover, in experiment [2], the ED50 is 40.5 mg/kg and the “ID50 (mg/kg)/ ED50 (mg/kg)” value worked out at 460.2. In experiment [3], this molecule returned an IC50 of 22.7 nM.
The like results for `CN1CCC(=C2c3ccccc3CCc3cc(C=CC(=O)O)sc32)CC1` [Compound 15, 3-[4-(1-Methylpiperidin-4-ylidene)-9,10-dihydro-4H-3-thiabenzo[f]azulen-2-yl]acrylic acid] were, in that order, 0.18 mg/kg, 5.6 mg/kg, 31.1 and 26.8 nM.

The IC50 is the concentration that gives 50% inhibition.
